# Measured values from patent US7566444B2, “Versatile hydrophilic dyes” (Mallinckrodt Inc., priority 2000, dated 2009).
# Experiments:
# [1] = test system: Pancreatic Ductal Adenocarcinoma (DSL 6A); assay: In vivo fluorescence imaging of pancreatic ductal adenocarcinoma (DSL 6A) tumors; parameters: species or system rat
# Description: (§1) A non-invasive in vivo fluorescence imaging apparatus was employed to assess the efficacy of contrast agents developed for tumor detection in animal models. A LaserMax Inc. laser diode of nominal wavelength 780 nm and nominal power of 40 mW was used. The detector was a Princeton Instruments model RTE/CCD-1317-K/2 CCD camera with a Rodenstock 10 mm F2 lens (stock #542.032.002.20) attached. An 830 nm interference […] (CVI Laser Corp., part # F10-830-4-2) was mounted in front of the CCD input lens such that only emitted fluorescent light from the contrast agent was imaged. Typically, an image of the animal was taken pre-injection of contrast agent. This image was subsequently subtracted (pixel by pixel) from the post injection images. However, the background subtraction was […] done once the animal had been removed from the sample area and returned at a later time for images taken several hours post injection.
# DSL 6A tumors were induced in male Lewis rats in the left flank area by the introduction of material from a solid (donor) implant, and the tumors were palpable in approximately 14 days. The animals were anesthetized with xylazine:ketamine:acepromazine, 1.5:1.5:0.5 at 0.8 mL/kg via intramuscular injection. The area of the tumor (left flank) was shaved to expose the tumor and the surrounding surface area. […]
# [2] = test system: Prostatic Carcinoma (Dunning R3327-H); assay: In vivo fluorescence imaging of prostatic carcinoma (R3327-H) tumors; parameters: species or system rat
# Description: as §1
# The imaging apparatus and the procedure used are described as in Example 12. Prostate tumors (Dunning R3327-H) were induced in young male Copenhagen rats in the left flank area from a solid implant. These tumors grow very slowly and palpable masses were present 4-5 months post implant. FIGS. 7C-D are images of a rat with an induced prostatic carcinoma tumor (R3327-H) imaged at two minutes (FIG. 7C) and 30 minutes (FIG. 7D) post injection.
# [3] = test system: pancreatic acinar carcinoma expressing the SST-2 receptor (CA20948); assay: In vivo fluorescence imaging of rat pancreatic acinar carcinoma (CA20948); details: for uptake (fluorescence) in tumor at 45 minutes: 45 minutes post injection, rats with CA20948 tumor
# Description: as §1
# The imaging apparatus and the procedure used are described in Example 12. Rat pancreatic acinar carcinoma expressing the SST-2 receptor (CA20948) was induced by solid implant technique in the left flank area, and palpable masses were detected nine days post implant. The images obtained at 2 and 30 minutes post injection are shown in FIG. 7E-F. FIGS. 7E-F are images of a rat with an induced pancreatic acinar carcinoma (CA20948) expressing the SST-2 receptor imaged at two minutes (FIG. 7E) and 30 minutes (FIG. 7F) post injection.
# The imaging apparatus and the procedure used are described in Example 12, except that each animal received 500 μL of a 1.0 mg/mL solution of Cytate 1 solution of 25% dimethylsulfoxide in water.
# Rat pancreatic acinar carcinoma expressing the SST-2 receptor (CA20948) were induced by solid implant technique in the left flank area, and palpable masses were detected 24 days post implant. Images were obtained at various times post injection.
# (§2) Cytate 1 was evaluated in the CA20948 Lewis rat model. […] At 19 hours post injection the animal was again imaged (FIG. 9B). […] As a control, the organs were imaged again (FIG. 10A) and the image was compared with that of the same tissues in the uninjected rat (FIG. 10B).
# [4] = Imaging of individual organs removed from CA20948 tumor-bearing rat; assay type: in vivo
# Procedure: as §2
# Individual organs were removed and imaged.
# [5] = Monitoring of the blood clearance profile of peptide-dye conjugates; assay type: in vivo; details: rat ear; tail vein bolus; 830 nm after excitation at 780 nm
# Description: A laser of appropriate wavelength for excitation of the dye chromophore was directed into one end of a fiber optic bundle and the other end was positioned a few millimeters from the ear of a rat. A second fiber optic bundle was also positioned near the same ear to detect the emitted fluorescent light and the other end was directed into the optics and electronics for data collection. An interference filter (IF) in the collection optics train was used to select emitted fluorescent light of the appropriate wavelength for the dye chromophore.
# Sprague-Dawley or Fischer 344 rats were used in these studies. The animals were anesthetized with urethane administered via intraperitoneal injection at a dose of 1.35 g/kg body weight. After the animals had achieved the desired plane of anesthesia, a 21 gauge butterfly with 12″ tubing was placed in the lateral tail vein of each animal and flushed with heparinized saline. The animals were placed onto a heating pad and kept warm throughout the entire study. The lobe of the left ear was affixed to a glass microscope slide to reduce movement and vibration.
# Incident laser light delivered from the fiber optic was centered on the affixed ear. Data acquisition was then initiated, and a background reading of fluorescence was obtained prior to administration of the test agent. For Cytates 1 or 2, the peptide-dye conjugate was administered to the animal through a bolus injection, typically 0.5 to 2.0 mL, in the lateral tail vein. This procedure was repeated with several dye-peptide conjugates in normal and tumor-bearing rats. Representative profiles as a method to monitor blood clearance of the peptide-dye conjugate in normal and tumor-bearing animals are shown in FIGS. 12 to 16. The data were analyzed using a standard sigma plot software program for a one-compartment model.
smiles,measurement,setting,value
"CC1(C)C(/C=C/C=C/C=C/C=C2\N(CCCCS(=O)(=O)O)c3ccc4ccccc4c3C2(C)C)=[N+](CCCCS(=O)(=O)[O-])c2ccc3ccccc3c21 [ICG, indocyanine green, reference compound]",dye intensity in the tumor,"[1]; 30 minutes post-ICG injection vs 2 minutes, DSL 6A tumor, male Lewis rats, 500 μL of 0.42 mg/mL in water, tail vein",considerably diminished
same,perfusion of the agent into the tumor,"[1]; DSL 6/A (pancreatic) tumor line, CCD camera",slow perfusion of the agent over time into the tumor
same,dye intensity in the tumor,"[2]; 30 minutes post-ICG injection vs 2 minutes, R3327-H tumor, male Copenhagen rats",considerably diminished
same,perfusion of the agent into the tumor,"[2]; Dunning R3327H (prostate) tumor line, CCD camera",slow perfusion of the agent over time into the tumor
same,dye intensity in the tumor,"[3]; 30 minutes post-ICG injection vs 2 minutes, CA20948 tumor",considerably diminished and almost absent
same,uptake (fluorescence) in tumor at 45 minutes,[3],mostly cleared
same,perfusion of the agent into the tumor,"[3]; CA20948 (pancreatic) tumor line, absent after 30 minutes post injection",slight but transient perfusion
same,non-specific localization into the tumor line,"[3]; CA20948, compared to the other two tumor lines",no non-specific localization
"C[C@@H](O)[C@H](NC(=O)[C@@H]1CSSC[C@H](NC(=O)[C@@H](Cc2ccccc2)NC(=O)CCN2C(=CC=CC=CC=CC3=[N+](CCC(=O)O)c4ccc5ccccc5c4C3(C)C)C(C)(C)c3c2ccc2ccccc32)C(=O)N[C@@H](Cc2ccc(O)cc2)C(=O)N[C@H](Cc2c[nH]c3ccccc23)C(=O)N[C@@H](CCCCN)C(=O)N[C@@H]([C@@H](C)O)C(=O)N1)C(=O)O [Cytate 1, monoOctreotate-Bisethylcarboxymethylindocyanine dye]",uptake (fluorescence) in tumor at 45 minutes,[3],still intense
same,localization of dye in the tumor,"[3]; 90 minutes post injection, CA20948 Lewis rat model",strong localization
same,tumor visualization,"[3]; 19 hours post injection, CA20948 Lewis rat model",easily observed
same,time of maximal uptake into the tumor,"[3]; CA20948 tumor, 500 μL of 1.0 mg/mL in 25% dimethylsulfoxide in water",about five
same,persistence of dye fluorescence in the tumor,"[3]; CA20948 tumor, post-injection",remained intense in the tumor for several hours
same,uptake in adrenals,[4]; removed organ imaged,High uptake
same,uptake in heart,[4]; removed organ imaged,significantly lower uptake
same,uptake in liver,[4]; removed organ imaged,significantly lower uptake
same,uptake in pancreas,[4]; removed organ imaged,High uptake
same,uptake in spleen,[4]; removed organ imaged,significantly lower uptake
same,uptake in muscle,[4]; removed tissue imaged,significantly lower uptake
same,uptake in tumor tissue,[4]; removed tissue imaged,High uptake
same,blood fluorescence signal after bolus injection (rise),[5],rapidly increased to a peak value
same,blood fluorescence signal after peak (clearance from the bloodstream),[5],decayed as a function of time
"C[C@@H](O)[C@H](NC(=O)[C@@H]1CSSC[C@H](NC(=O)[C@@H](Cc2ccccc2)NC(=O)CCN2C(=CC=CC=CC=CC3=[N+](CCC(=O)N[C@H](Cc4ccccc4)C(=O)N[C@H]4CSSC[C@@H](C(=O)N[C@H](C(=O)O)[C@@H](C)O)NC(=O)[C@H]([C@@H](C)O)NC(=O)[C@H](CCCCN)NC(=O)[C@@H](Cc5c[nH]c6ccccc56)NC(=O)[C@H](Cc5ccc(O)cc5)NC4=O)c4ccc5ccccc5c4C3(C)C)C(C)(C)c3c2ccc2ccccc32)C(=O)N[C@@H](Cc2ccc(O)cc2)C(=O)N[C@H](Cc2c[nH]c3ccccc23)C(=O)N[C@@H](CCCCN)C(=O)N[C@@H]([C@@H](C)O)C(=O)N1)C(=O)O [Cytate 2, bis Octreotate-Bisethylcarboxymethylindocyanine dye]",blood fluorescence signal after bolus injection (rise),[5],rapidly increased to a peak value
same,blood fluorescence signal after peak (clearance from the bloodstream),[5],decayed as a function of time
